Experimental data from publication PMC12155096 (International Journal of Molecular Sciences, 2025).
Where two headings read alike, the source gives them in different places.

Key:
human CYP1A2 = target: T1, human CYP1A2 (Homo sapiens, UniProt P05177)
T1 sequence (P05177 1-516): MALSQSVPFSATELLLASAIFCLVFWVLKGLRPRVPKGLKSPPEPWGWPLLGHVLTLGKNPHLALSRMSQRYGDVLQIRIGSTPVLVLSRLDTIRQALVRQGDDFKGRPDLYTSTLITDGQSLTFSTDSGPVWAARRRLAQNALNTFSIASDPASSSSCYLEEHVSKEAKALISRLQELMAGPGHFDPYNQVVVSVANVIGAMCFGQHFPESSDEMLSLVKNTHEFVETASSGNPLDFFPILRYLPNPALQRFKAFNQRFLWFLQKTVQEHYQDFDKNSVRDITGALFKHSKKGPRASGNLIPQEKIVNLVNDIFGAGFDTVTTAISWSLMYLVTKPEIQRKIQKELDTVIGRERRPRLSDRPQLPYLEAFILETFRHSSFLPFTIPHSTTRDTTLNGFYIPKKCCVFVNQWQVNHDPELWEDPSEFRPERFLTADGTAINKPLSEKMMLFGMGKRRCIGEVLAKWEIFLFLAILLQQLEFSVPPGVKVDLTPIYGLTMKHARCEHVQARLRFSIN

human CYP2C19 = human CYP2C19 (Homo sapiens, UniProt P33261)
human CYP2C19, sequence (P33261 whole entry): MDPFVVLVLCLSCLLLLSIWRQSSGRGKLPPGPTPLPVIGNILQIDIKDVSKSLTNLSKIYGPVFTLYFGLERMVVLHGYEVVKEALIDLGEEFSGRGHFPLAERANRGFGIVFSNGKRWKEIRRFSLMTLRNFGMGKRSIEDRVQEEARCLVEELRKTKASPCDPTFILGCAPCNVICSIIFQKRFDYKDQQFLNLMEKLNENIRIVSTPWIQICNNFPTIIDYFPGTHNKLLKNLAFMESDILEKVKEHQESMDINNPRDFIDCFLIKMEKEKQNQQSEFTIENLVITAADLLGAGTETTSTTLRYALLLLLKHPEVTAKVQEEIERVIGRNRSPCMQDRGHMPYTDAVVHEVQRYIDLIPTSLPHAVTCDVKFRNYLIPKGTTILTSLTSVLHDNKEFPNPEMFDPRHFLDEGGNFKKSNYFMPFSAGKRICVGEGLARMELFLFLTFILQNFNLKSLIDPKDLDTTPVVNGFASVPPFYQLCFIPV

human CYP2D6 = human CYP2D6 (Homo sapiens, UniProt P10635)
human CYP2D6, sequence (P10635 whole entry): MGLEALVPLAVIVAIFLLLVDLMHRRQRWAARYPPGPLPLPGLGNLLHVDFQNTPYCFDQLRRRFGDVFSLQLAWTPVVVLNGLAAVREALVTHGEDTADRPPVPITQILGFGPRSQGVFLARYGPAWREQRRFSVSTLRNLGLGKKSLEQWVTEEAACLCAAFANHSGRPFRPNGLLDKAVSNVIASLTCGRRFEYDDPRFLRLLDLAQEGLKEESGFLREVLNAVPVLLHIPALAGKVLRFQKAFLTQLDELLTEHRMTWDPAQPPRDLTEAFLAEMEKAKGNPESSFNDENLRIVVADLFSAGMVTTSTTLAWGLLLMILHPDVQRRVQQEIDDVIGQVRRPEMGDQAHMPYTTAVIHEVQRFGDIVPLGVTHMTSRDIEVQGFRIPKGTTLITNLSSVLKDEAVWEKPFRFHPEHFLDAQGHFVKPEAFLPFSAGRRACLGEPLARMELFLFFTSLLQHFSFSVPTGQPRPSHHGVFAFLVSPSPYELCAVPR

human CYP2C9 = human CYP2C9 (Homo sapiens, UniProt P11712); experiment: biochemical
human CYP2C9, sequence (P11712 whole entry): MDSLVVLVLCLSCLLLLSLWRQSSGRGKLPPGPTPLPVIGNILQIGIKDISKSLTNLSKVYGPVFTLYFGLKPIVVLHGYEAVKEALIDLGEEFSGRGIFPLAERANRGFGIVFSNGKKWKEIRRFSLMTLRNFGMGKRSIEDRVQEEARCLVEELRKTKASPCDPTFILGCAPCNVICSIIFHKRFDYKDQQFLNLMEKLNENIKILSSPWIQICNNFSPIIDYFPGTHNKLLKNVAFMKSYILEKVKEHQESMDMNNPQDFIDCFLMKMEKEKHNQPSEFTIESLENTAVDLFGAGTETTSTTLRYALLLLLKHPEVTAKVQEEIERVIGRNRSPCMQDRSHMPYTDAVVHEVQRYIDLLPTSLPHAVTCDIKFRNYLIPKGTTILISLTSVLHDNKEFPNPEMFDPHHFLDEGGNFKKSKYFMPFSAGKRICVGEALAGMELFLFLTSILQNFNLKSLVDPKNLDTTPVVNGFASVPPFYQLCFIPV

CYP3A4 = CYP3A4 (Homo sapiens, UniProt P08684); experiment: biochemical
CYP3A4, sequence (P08684 whole entry): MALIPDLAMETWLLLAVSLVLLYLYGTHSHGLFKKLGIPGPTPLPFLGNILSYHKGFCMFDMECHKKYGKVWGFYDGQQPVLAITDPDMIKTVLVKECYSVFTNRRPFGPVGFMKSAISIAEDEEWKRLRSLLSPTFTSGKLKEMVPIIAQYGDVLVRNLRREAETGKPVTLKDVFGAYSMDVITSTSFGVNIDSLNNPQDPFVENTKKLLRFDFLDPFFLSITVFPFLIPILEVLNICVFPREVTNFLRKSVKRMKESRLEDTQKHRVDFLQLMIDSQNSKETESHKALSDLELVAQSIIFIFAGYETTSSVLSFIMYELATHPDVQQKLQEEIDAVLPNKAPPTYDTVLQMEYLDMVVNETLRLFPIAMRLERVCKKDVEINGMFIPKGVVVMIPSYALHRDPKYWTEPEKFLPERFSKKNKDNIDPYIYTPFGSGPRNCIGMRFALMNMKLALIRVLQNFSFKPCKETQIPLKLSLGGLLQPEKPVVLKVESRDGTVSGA

[1] = CYP2C9 AC50 (half-maximal activity concentration)
[2] = CYP3A4 AC50 (half-maximal activity concentration)

Row | Compound | CYP1A2 AC50 (half-maximal activity concentration) (human CYP1A2) | CYP2C19 AC50 (half-maximal activity concentration) (human CYP2C19) | CYP2D6 AC50 (half-maximal activity concentration) (human CYP2D6) | AC50 (human CYP2C9; [1]) [µM] | AC50 (CYP3A4; [2]) [µM] | AC50 (human CYP2C9) [µM] | AC50 (CYP3A4) [µM]
1 | CCC(=O)Oc1ccc(/C(CC)=C(\CC)c2ccc(OC(=O)CC)cc2)cc1 [Diethylstilbestrol dipropionate] | Inactive | Inactive | Inactive | 21.2 | 22.9 |  | 
2 | CC(=O)OCC(=O)[C@@]1(OC(C)=O)[C@@H](C)C[C@H]2[C@@H]3C[C@H](F)C4=CC(=O)C=C[C@]4(C)[C@@]3(F)[C@@H](O)C[C@@]21C [Diflorasone diacetate] | Inactive | Inconclusive activator | Inactive | 19 | 4.74 |  | 
3 | CC(C)COC(=O)CCCCC(=O)OCC(C)C [Diisobutyl adipate] | Inconclusive inhibitor | Inactive | Inactive |  |  | 38 | 11.7
4 | CN(C(=O)C(Cl)Cl)c1ccc(OC(=O)c2ccco2)cc1 [Diloxanide furoate] | Inactive | Inconclusive inhibitor | Inconclusive | 15.5 | 25.3 |  | 
5 | O=C(NC(=O)c1c(F)cccc1F)Nc1ccc(Oc2ccc(C(F)(F)F)cc2Cl)cc1F [Flufenoxuron] | Inactive | Inconclusive | Inactive | 17.8 | 18.6 |  | 
6 | Cc1ccc(Cl)c(Nc2ccccc2C(=O)O)c1Cl [Meclofenamate sodium] | Inactive | Inactive | Inconclusive inhibitor | 24.2 | 38.9 |  | 
7 | Cc1cccc(Nc2ccccc2C(=O)O)c1C [Mefenamic acid] | Inconclusive inhibitor | Inconclusive inhibitor | Inactive | 33 | 73.9 |  | 
8 | C[C@]12C=CC(=O)C=C1CC[C@@H]1[C@@H]2CC[C@@]2(C)[C@H]1CC[C@]2(C)O [Methandrostenolone] | Inactive | Inactive | Inactive | 34.7 | 2.65 |  | 
9 | O=C(O)C(F)(F)C(F)(F)C(F)(F)C(F)(F)C(F)(F)C(F)(F)F [Perfluoroheptanoic acid] | Inactive | Inactive | Inactive | 6.33 | 65.8 |  | 
10 | O=C(O)c1ccccc1C(c1ccc(O)cc1)c1ccc(O)cc1 [Phenolphthalin] | Inconclusive inhibitor | Inactive | Inactive | 56.6 | 30.1 |  | 
